# Source: patent publication US20220387608A1, “ADRENOMEDULLIN-ANALOGUES FOR LONG-TERM STABILIZATION AND THEIR USE” (Bayer Aktiengesellschaft, priority 2019, published 2022)
# Positions of bridges follow the written chain, without caps; N, C: chain ends. Non-standard residues stand in square brackets, D forms with d. Residues, ends and D or L forms follow the SMILES beside them. *: point of attachment. C18 diacid = O=C(O)CCCCCCCCCCCCCCCCC(=O)*; PEG3 = NCCOCCOCCOCCC(=O)O; Dap = NC[C@H](N)C(=O)O
# Biological target: T1, AM1R (Homo sapiens, UniProt O60895+Q16602)
# T1 construct: EYFP; ECFP; expressed in transfected cells; host or cells: HEK-293 (transient co-transfection)
# Assay: Activity determination in vitro: cAMP/CRE-luciferase reporter assay in HEK293 cells transiently co-transfected with CLR and RAMP2
# Format: cell-based
# Conditions: for Emax: HEK293, normalized to [G14]ADM(14-52); for EC50: HEK293 with CLR/RAMP2, CRE-luciferase, 3 h stimulation
# How it was run: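 HEK-293 cells transiently co-transfected with CLR-EYFP, RAMP2-ECFP and a CRE-luc2P reporter, stimulated 3 h at 37° C with eight ligand concentrations in triplicate. Luminescence read by ONE-Glo, corrected to 5 μM forskolin, normalized to [G14]ADM(14-52) standard, and fitted by non-linear regression.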
# T1 sequence (Q16602 23-461): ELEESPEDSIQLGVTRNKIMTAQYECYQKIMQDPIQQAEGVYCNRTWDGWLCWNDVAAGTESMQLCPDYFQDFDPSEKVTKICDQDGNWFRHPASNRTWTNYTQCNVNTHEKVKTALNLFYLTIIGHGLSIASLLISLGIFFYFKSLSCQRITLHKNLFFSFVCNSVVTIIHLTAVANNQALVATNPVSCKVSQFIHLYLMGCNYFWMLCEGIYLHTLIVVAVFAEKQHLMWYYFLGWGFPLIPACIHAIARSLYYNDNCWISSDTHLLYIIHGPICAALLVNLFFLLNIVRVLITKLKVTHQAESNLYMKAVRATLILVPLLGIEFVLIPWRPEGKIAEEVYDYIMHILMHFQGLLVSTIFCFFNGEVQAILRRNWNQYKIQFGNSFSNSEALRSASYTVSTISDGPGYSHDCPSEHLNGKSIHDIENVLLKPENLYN
# T1 sequence (O60895 43-175): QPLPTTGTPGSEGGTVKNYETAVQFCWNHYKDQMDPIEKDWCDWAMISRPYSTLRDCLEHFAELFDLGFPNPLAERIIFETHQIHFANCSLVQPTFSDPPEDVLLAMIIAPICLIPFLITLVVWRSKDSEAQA
SMILES,Emax,EC50
CC[C@H](C)[C@H](NC(=O)[C@H](CCC(N)=O)NC(=O)[C@H](Cc1c[nH]cn1)NC(=O)[C@H](C)NC(=O)[C@H](CC(C)C)NC(=O)[C@H](CCCCN)NC(=O)[C@H](CCC(N)=O)NC(=O)[C@@H](NC(=O)[C@@H](NC(=O)[C@@H]1CSSC[C@H](NC(=O)CNC(=O)[C@@H](N)CCCCNC(=O)CCCCCCCCCCCCCCCCC(=O)O)C(=O)N[C@@H](CCCNC(=N)N)C(=O)N[C@@H](Cc2ccccc2)C(=O)NCC(=O)N[C@@H]([C@@H](C)O)C(=O)N1)[C@@H](C)O)C(C)C)C(=O)N[C@@H](Cc1ccc(O)cc1)C(=O)N[C@@H](CCC(N)=O)C(=O)N[C@@H](Cc1ccccc1)C(=O)N[C@H](C(=O)NCCOCCOCCOCCC(=O)N[C@@H](CC(=O)O)C(=O)N[C@@H](CC(N)=O)C(=O)N[C@H](C(=O)N[C@@H](C)C(=O)N1CCC[C@H]1C(=O)N[C@H]1CCCCNC(=O)C[C@@H](C(=O)N2CCC[C@H]2C(=O)N[C@@H](CCC(N)=O)C(=O)NCC(=O)N[C@@H](Cc2ccc(O)cc2)C(N)=O)NC(=O)[C@H]([C@@H](C)CC)NC(=O)[C@H](CCCCN)NC(=O)[C@H](CO)NC1=O)C(C)C)[C@@H](C)O [Example 14] (H-K(C18 diacid)GCRFGTCTVQKLAHQIYQFT[PEG3]DNVAPKSKIDPQGY-NH2; disulfide 3-8; lactam 28-32),92 ± 5%,6.6 nM
"CC[C@H](C)[C@H](NC(=O)[C@H](CCC(N)=O)NC(=O)[C@H](Cc1c[nH]cn1)NC(=O)[C@H](C)NC(=O)[C@H](CC(C)C)NC(=O)[C@H](CCCCN)NC(=O)[C@H](CCC(N)=O)NC(=O)[C@@H](NC(=O)[C@@H](NC(=O)[C@@H]1CCC(=O)NC[C@H](NC(=O)CNC(=O)[C@@H](N)CCCCNC(=O)CCCCCCCCCCCCCCCCC(=O)O)C(=O)N[C@@H](CCCNC(=N)N)C(=O)N[C@@H](Cc2ccccc2)C(=O)NCC(=O)N[C@@H]([C@@H](C)O)C(=O)N1)[C@@H](C)O)C(C)C)C(=O)N[C@@H](Cc1ccc(O)cc1)C(=O)N[C@@H](CCC(N)=O)C(=O)N[C@@H](Cc1ccccc1)C(=O)N[C@H](C(=O)N[C@@H](CC(=O)O)C(=O)N[C@@H](CCCCN)C(=O)N[C@@H](CC(=O)O)C(=O)N[C@@H](CCCCN)C(=O)N[C@@H](CC(=O)O)C(=O)N[C@@H](CC(N)=O)C(=O)N[C@H](C(=O)N[C@@H](C)C(=O)N1CCC[C@H]1C(=O)N[C@@H](CCCNC(=N)N)C(=O)N[C@@H](CO)C(=O)N[C@@H](CCCCN)C(=O)N[C@H](C(=O)N[C@@H](CO)C(=O)N1CCC[C@H]1C(=O)N[C@@H](CCC(N)=O)C(=O)NCC(=O)N[C@@H](Cc1ccc(O)cc1)C(N)=O)[C@@H](C)CC)C(C)C)[C@@H](C)O [Example 15, ((3S,9S,12S,15S,21S)-15-(2-((S)-2-amino-6-(17-carboxyoctadecanamido)hexanamido)acetamido)-9-benzyl-12-(3-guanidinopropyl)-3-((R)-1-hydroxyethyl)-2,5,8,11,14,18-hexaoxo-1,4,7,10,13,17-hexaazacyclohenicosane-21-carbonyl)-L-threonyl-ADM(23-52)] (H-K(C18 diacid)G[Dap]RFGTETVQKLAHQIYQFTDKDKDNVAPRSKISPQGY-NH2; lactam 3-8)",89 ± 2%,3.4 nM
"CC[C@H](C)[C@H](NC(=O)[C@H](CCC(N)=O)NC(=O)[C@H](Cc1c[nH]cn1)NC(=O)[C@H](C)NC(=O)[C@H](CC(C)C)NC(=O)[C@H](CCCCN)NC(=O)[C@H](CCC(N)=O)NC(=O)[C@@H](NC(=O)[C@@H](NC(=O)[C@@H]1CCC(=O)NC[C@H](NC(=O)CNC(=O)[C@@H](N)CCCCNC(=O)CCCCCCCCCCCCCCCCC(=O)O)C(=O)N[C@@H](CCCNC(=N)N)C(=O)N[C@@H](Cc2ccccc2)C(=O)NCC(=O)N[C@@H]([C@@H](C)O)C(=O)N1)[C@@H](C)O)C(C)C)C(=O)N[C@@H](Cc1ccc(O)cc1)C(=O)N[C@@H](CCC(N)=O)C(=O)N[C@@H](Cc1ccccc1)C(=O)N[C@H](C(=O)N[C@@H](CC(=O)O)C(=O)N[C@@H](CCCCN)C(=O)N[C@@H](CC(=O)O)C(=O)N[C@@H](CCCCN)C(=O)N[C@@H](CC(=O)O)C(=O)N[C@@H](CC(N)=O)C(=O)N[C@H](C(=O)N[C@@H](C)C(=O)N1CCC[C@H]1C(=O)N[C@H]1CCCCNC(=O)C[C@@H](C(=O)N2CCC[C@H]2C(=O)N[C@@H](CCC(N)=O)C(=O)NCC(=O)N[C@@H](Cc2ccc(O)cc2)C(N)=O)NC(=O)[C@H]([C@@H](C)CC)NC(=O)[C@H](CCCCN)NC(=O)[C@H](CO)NC1=O)C(C)C)[C@@H](C)O [Example 16] (H-K(C18 diacid)G[Dap]RFGTETVQKLAHQIYQFTDKDKDNVAPKSKIDPQGY-NH2; lactam 3-8, 31-35)",100 ± 5%,1.4 nM

# Now from value to compound:
Emax,EC50,SMILES
77 ± 3%,5 nM,"CC[C@H](C)[C@H](NC(=O)[C@H](CCC(N)=O)NC(=O)[C@H](Cc1c[nH]cn1)NC(=O)[C@H](C)NC(=O)[C@H](CC(C)C)NC(=O)[C@H](CCCCN)NC(=O)[C@H](CCC(N)=O)NC(=O)[C@@H](NC(=O)[C@@H](NC(=O)[C@@H]1CCC(=O)NC[C@H](NC(=O)CNC(=O)[C@@H](N)CCCCNC(=O)CCCCCCCCCCCCCCCCC(=O)O)C(=O)N[C@@H](CCCNC(=N)N)C(=O)N[C@@H](Cc2ccccc2)C(=O)NCC(=O)N[C@@H]([C@@H](C)O)C(=O)N1)[C@@H](C)O)C(C)C)C(=O)N[C@@H](Cc1ccc(O)cc1)C(=O)N[C@@H](CCC(N)=O)C(=O)N[C@@H](Cc1ccccc1)C(=O)N[C@H](C(=O)NCCOCCOCCOCCC(=O)N[C@@H](CC(=O)O)C(=O)N[C@@H](CC(N)=O)C(=O)N[C@H](C(=O)N[C@@H](C)C(=O)N1CCC[C@H]1C(=O)N[C@H]1CCCCNC(=O)C[C@@H](C(=O)N2CCC[C@H]2C(=O)N[C@@H](CCC(N)=O)C(=O)NCC(=O)N[C@@H](Cc2ccc(O)cc2)C(N)=O)NC(=O)[C@H]([C@@H](C)CC)NC(=O)[C@H](CCCCN)NC(=O)[C@H](CO)NC1=O)C(C)C)[C@@H](C)O [Example 17] (H-K(C18 diacid)G[Dap]RFGTETVQKLAHQIYQFT[PEG3]DNVAPKSKIDPQGY-NH2; lactam 3-8, 28-32)"
99 ± 1%,3.5 nM,"CC[C@H](C)[C@H](NC(=O)[C@H](CCC(N)=O)NC(=O)[C@H](Cc1c[nH]cn1)NC(=O)[C@H](C)NC(=O)[C@H](CC(C)C)NC(=O)[C@H](CCCCN)NC(=O)[C@H](CCC(N)=O)NC(=O)[C@@H](NC(=O)[C@@H](NC(=O)[C@@H]1CSSC[C@H](NC(=O)CNC(=O)CN)C(=O)N[C@@H](CCCNC(=N)N)C(=O)N[C@@H](Cc2ccccc2)C(=O)NCC(=O)N[C@@H]([C@@H](C)O)C(=O)N1)[C@@H](C)O)C(C)C)C(=O)N[C@@H](Cc1ccc(O)cc1)C(=O)N[C@@H](CCC(N)=O)C(=O)N[C@@H](Cc1ccccc1)C(=O)N[C@H](C(=O)N[C@@H](CC(=O)O)C(=O)N[C@@H](CCCCN)C(=O)N[C@@H](CC(=O)O)C(=O)N[C@@H](CCCCN)C(=O)N[C@@H](CC(=O)O)C(=O)N[C@@H](CC(N)=O)C(=O)N[C@H](C(=O)N[C@@H](C)C(=O)N1CCC[C@H]1C(=O)N[C@@H](CCCNC(=N)N)C(=O)N[C@@H](CO)C(=O)N[C@@H](CCCCN)C(=O)N[C@H](C(=O)N[C@@H](CO)C(=O)N1CCC[C@H]1C(=O)N[C@@H](CCC(N)=O)C(=O)NCC(=O)N[C@@H](Cc1ccc(O)cc1)C(N)=O)[C@@H](C)CC)C(C)C)[C@@H](C)O [Reference, reference compound]"
